{"source": "patent US10806707B2", "about": "“Cannabis oil compositions and methods for preparation thereof” (priority 2015, dated 2020)", "assay_type_in_all_cases": "cell-based", "key": {"CNR1 (also known as CB1) [1]": {"target": "T1, CNR1 (also known as CB1) (Homo sapiens, UniProt P21554)", "T1 construct": "β-galactosidase enzyme fragment (implied by the complementation read-out)", "T1 sequence (P21554 whole entry, species assumed, the tested form may be a part)": "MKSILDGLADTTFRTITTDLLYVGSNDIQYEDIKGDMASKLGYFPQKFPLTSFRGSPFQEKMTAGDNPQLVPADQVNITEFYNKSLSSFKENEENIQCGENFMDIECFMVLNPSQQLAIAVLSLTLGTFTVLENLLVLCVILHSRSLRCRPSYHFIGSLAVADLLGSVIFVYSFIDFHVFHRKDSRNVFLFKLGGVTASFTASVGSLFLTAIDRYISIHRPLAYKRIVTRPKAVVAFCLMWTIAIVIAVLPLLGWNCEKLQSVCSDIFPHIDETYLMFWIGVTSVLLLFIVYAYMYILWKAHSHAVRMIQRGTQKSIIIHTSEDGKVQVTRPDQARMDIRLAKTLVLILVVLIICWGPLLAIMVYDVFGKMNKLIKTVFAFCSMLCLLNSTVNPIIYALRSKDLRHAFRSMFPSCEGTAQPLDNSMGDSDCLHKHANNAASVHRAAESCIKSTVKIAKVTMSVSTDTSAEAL", "settings": "read-out: CNR1 β-Arrestin EC50"}, "CNR1 (also known as CB1) [2]": {"target": "T1, CNR1 (also known as CB1)", "settings": "read-out: CNR1 cAMP EC50"}, "CNR2 (also known as CB2) [3]": {"target": "T2, CNR2 (also known as CB2) (Homo sapiens, UniProt P34972)", "T2 construct": "β-galactosidase enzyme fragment (implied by the complementation read-out)", "T2 sequence (P34972 whole entry, species assumed, the tested form may be a part)": "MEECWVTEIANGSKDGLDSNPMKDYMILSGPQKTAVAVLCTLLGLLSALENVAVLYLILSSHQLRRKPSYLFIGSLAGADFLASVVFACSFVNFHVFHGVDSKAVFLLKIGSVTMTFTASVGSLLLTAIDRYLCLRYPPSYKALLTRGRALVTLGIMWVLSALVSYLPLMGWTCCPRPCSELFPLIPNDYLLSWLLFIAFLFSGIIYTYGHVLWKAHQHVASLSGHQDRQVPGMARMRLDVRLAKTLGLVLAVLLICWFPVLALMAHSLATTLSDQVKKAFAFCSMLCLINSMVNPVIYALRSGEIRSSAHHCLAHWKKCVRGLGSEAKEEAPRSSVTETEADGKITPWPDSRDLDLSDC", "assay": "cAMP competitive inhibition immunoassay (HitHunter), CNR2 activation", "settings": "CNR2, cAMP assay"}, "CNR2 (also known as CB2) [4]": {"target": "T2, CNR2 (also known as CB2)", "assay": "β-arrestin GPCR assay (PathHunter), CNR2 activation", "settings": "CNR2, β-arrestin recruitment"}}, "note": "Where two headings read alike, the source gives them in different places."}
{"smiles": "CCCCCc1cc(O)c2c(c1)OC(C)(C)[C@@H]1CCC(CO)=C[C@@H]21", "note": "[Example 11-OH-THC]", "values": [{"measurement": "EC50", "setting": "CNR1 (also known as CB1) [1]", "value": "> 16700", "unit": "nM"}, {"measurement": "EC50", "setting": "CNR1 (also known as CB1) [2]", "value": 10.8, "unit": "nM"}, {"measurement": "EC50", "setting": "CNR2 (also known as CB2) [3]", "value": 571, "unit": "nM"}, {"measurement": "EC50", "setting": "CNR2 (also known as CB2) [4]", "value": "> 16700", "unit": "nM"}]}
